For six compounds, viability, T/C and IC50 results are on record in PubChem BioAssay AID2060903 (Molecular Pharmacology Branch, DTP, NCI, 2025).

Structures are written as SMILES. Where “and” joins values, the source holds several entries; their conditions need not be identical. Equal entries are not always repeated.

The test system of the assay is 377384-186-R-J1-PDC complex spheroid viability. In words: Anticancer human tumor 377384-186-R-J1-PDC patient-derived pancreatic carcinoma cell line growth inhibition [RAS]. As to conditions: for viability, T/C: stronger effect = lower value. From the text:
RAS pathway inhibitors in Combinations in Complex Spheroids
A high-throughput screen of multi-cell type tumor spheroids was designed to identify active combinations of RAS pathway inhibitors and targeted small molecules. Complex spheroids include a stromal component modeled by human endothelial cells (HUVEC) and fibroblasts modeled by human mesenchymal stem cells (MSCs). The concentration ranges selected for each drug and investigational agent were based upon clinically achievable concentrations if the clinical Cmax of the agent was known.
Compounds. The drugs and investigational agents: abemaciclib (NSC768073), cobimetinib (NSC768068), divarasib (GDC6063, NSC841802), docetaxel (NSC628503), GDC-1971 (RLY-1971, NSC841576), gemcitabine (NSC613327), inavolisib (NSC800729), ipatasertib (NSC767898), KB-0742 (NSC834161), MRTX-1133 (NSC836407), osimertinib (NSC779217), RMC-4630 (NSC839698), RMC-6236 (NSC851965), RMC-6291 (NSC852671), Ro-3306 (NSC812927), sapanisertib (NSC764658), SN-38 (NSC673596), staurosporine (NSC755774), SY5609 (NSC837396), and tovorafenib (DAY101, NSC766906), were obtained from the National Cancer Institute (NCI) Developmental Therapeutics Program Chemical Repository. The FDA-approved anticancer drug set is available from the NCI Developmental Therapeutics Program. […] The stock solutions were prepared in dimethyl sulfoxide (DMSO, Sigma-Aldrich, St. Louis, MO, cat. D2650) at 800-fold the tested concentration and stored at -70 degrees C prior to their use. All drugs and investigational agents were tested over a range starting from a high concentration at or near the clinical Cmax and decreasing in half-log increments. If the clinical Cmax for an agent had not been determined, the highest concentration tested was 10 microM.
Cell Culture. All cells were maintained in an incubator at 37 degrees C and 5% CO2 with 95% humidity. The PDC lines were cultured according to standard operating procedures established by the NCI PDMR. All PDCs were thawed and cultured in Matrigel-coated flasks prepared with a working solution of 1X Ham's F-12 nutrient mix, without supplementation (Invitrogen, Waltham, MA, cat. 11765054), 100 U/mL penicillin-streptomycin (Invitrogen, cat. 15140122), and 2.5% Matrigel (Corning Inc., Corning, NY, cat. 354248) for the first three passages. The 362531-283-R-J2-PDC and 782815-120-R-J1-PDC lines were cultured in 6C/Colon 1B media, which includes advanced DMEM/F-12 (Thermo Fisher Scientific, cat. 12634028), 10 mM HEPES (Thermo Fisher Scientific, cat. 15630080), 1X GlutaMAX supplement (Thermo Fisher Scientific, cat. 35050061), 0.1 mg/mL primocin (InvivoGen, San Diego, CA, cat. ant-pm-2), 10% defined fetal bovine serum, heat inactivated (HyClone Laboratories Inc., Logan, UT, cat. SH30070.03HI), 50% L-WRN conditioned media (ATCC, cat. CRL-3276), 1.25 mM N-Acetyl-L-cysteine (Sigma-Aldrich, cat. A9165), 10 mM nicotinamide (Sigma-Aldrich, cat. N0636), 1X B-27 supplement (Thermo Fisher Scientific, cat. 17504044), 1X N-2 supplement (Thermo Fisher Scientific, cat. 17502048), 50 ng/mL human EGF (Thermo Fisher Scientific, cat. PHG0311), and 10 microM Y-27632 dihydrochloride (Tocris Bioscience, cat. 1254). The K12877-001-R-J1-PDC line was cultured in 6I media, which includes all 6C/Colon 1B media plus 10 ng/mL human FGF-10 (PeproTech, cat. 100-26), 1 ng/mL human FGF-2 (PeproTech, cat. 100-18B), 1 µM prostaglandin E2 (Tocris Bioscience, cat. 2296), […] hydrocortisone (Sigma-Aldrich, cat. H4001), and […] bovine insulin (Sigma-Aldrich, cat. I6634). The K86415-001-R-J1-PDC line was cultured in 6D media, which includes all 6C/Colon 1B media components minus the L-WRN conditioned media. The 485176-168-R4-J1-PDC was cultured in PANC media, which includes all 6C/Colon 1B media plus 100 ng/mL human FGF-10 (PeproTech, cat. 100-26), 500 nM SB-431542 (Selleckchem, cat. S1067), and 10 nM gastrin (Tocris Bioscience, cat. 3006). […]
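Further: spheroids exposed to compounds for seven days before readout.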

As for `CC(=O)OC12COC1CC(O)C1(C)C(=O)C(O)C3=C(C)C(OC(=O)C(O)C(NC(=O)OC(C)(C)C)c4ccccc4)CC(O)(C(OC(=O)c4ccccc4)C21)C3(C)C` (centres undefined), the viability, T/C runs as follows: (compound 0.0316 µM) 9.48% [middle of 4 runs]; (compound 0.1 µM) 12% and 10.2% (2×) and 9.32%; (compound 0.316 µM) 11.3% [middle of 4 runs]; (compound 1 µM) 12.8% [middle of 4 runs]; (compound 3.16 µM) 14.2% [middle of 4 runs]; (compound 10 µM) 13.2% [middle of 4 runs]. Besides, the IC50 (curve of compound) is less than 31.6 nM.

With `CC(C)NCC(C(=O)N1CCN(c2ncnc3c2C(C)CC3O)CC1)c1ccc(Cl)cc1` (centres undefined), the viability, T/C is 92% [middle of 4 runs] (compound 0.1 µM); 75.2% [middle of 4 runs] (compound 0.316 µM); 63.2% [middle of 4 runs] (compound 1 µM); 51.9% [middle of 4 runs] (compound 3.16 µM); 36.2% [middle of 4 runs] (compound 10 µM). The IC50 (curve of compound) was 2.58 µM [middle of 4 runs].

On to `CCC(CC)c1cc(NC2CCC(N)C2)n2nccc2n1` (centres undefined), for which the viability, T/C (compound 0.0316 µM) was 100% [middle of 4 runs]; the viability, T/C (compound 0.1 µM) was 105% [middle of 4 runs]; the viability, T/C (compound 0.316 µM) is 105% [middle of 4 runs]; the viability, T/C (compound 3.16 µM) was 3.17% [middle of 4 runs]; the viability, T/C (compound 10 µM) is 4.82% [middle of 4 runs]. Moreover, the half-maximal inhibitory concentration (IC50) (curve of compound) was 1.68 µM [middle of 4 runs].

Consider `Cc1nc(N2CCC3(CC2)COC(C)C3N)c(CO)nc1Sc1ccnc(N)c1Cl` (centres undefined), for which the viability, T/C runs as follows: (compound 0.0316 µM) 92% [middle of 4 runs]; (compound 0.1 µM) 85.4% [middle of 4 runs]; (compound 0.316 µM) 83.3% [middle of 4 runs]; (compound 1 µM) 85.2% [middle of 4 runs]; (compound 3.16 µM) 84.6% [middle of 4 runs]; (compound 10 µM) 79% [middle of 4 runs]. Besides, the half-maximal inhibitory concentration (IC50) (curve of compound) is more than 10000 nM.

Regarding `NC1c2ccccc2OC12CCN(c1cnc3c(N4CCCc5ncccc54)n[nH]c3n1)CC2` (centres undefined), the viability, T/C by setting is: (compound 0.1 µM) 83.4% [middle of 4 runs]; (compound 0.316 µM) 80.6% [middle of 4 runs]; (compound 1 µM) 73% [middle of 4 runs]; (compound 3.16 µM) 76.8% [middle of 4 runs]; (compound 10 µM) 70% [middle of 4 runs]. In addition, where the note is “curve of compound”, the IC50 is more than 10000 nM.

In the case of `C=CC(=O)Nc1cc(Nc2nccc(-c3cn(C)c4ccccc34)n2)c(OC)cc1N(C)CCN(C)C` + C#Cc1c(F)ccc2cc(O)cc(-c3ncc4c(N5CC6CCC(C5)N6)nc(OCC56CCCN5CC(F)C6)nc4c3F)c12, the half-maximal inhibitory concentration (IC50) runs as follows: (curve of first compound, second compound 0.0316 µM) less than 3.16 nM; (curve of first compound, second compound 0.1 µM) less than 3.16 nM; (curve of first compound, second compound 0.316 µM) less than 3.16 nM; (curve of first compound, second compound 1 µM) less than 3.16 nM; (curve of first compound, second compound 3.16 µM) less than 3.16 nM; (curve of first compound, second compound 10 µM) less than 3.16 nM. Also, the viability, T/C reads like this: (second compound 0.0316 µM, first compound 0.00316 µM) 23.5%; (second compound 0.0316 µM, first compound 0.01 µM) 20.6%; (second compound 0.0316 µM, first compound 0.0316 µM) 15.2%; (second compound 0.0316 µM, first compound 0.1 µM) 11.2%; (second compound 0.0316 µM, first compound 0.316 µM) 3.98%; (second compound 0.0316 µM, first compound 1 µM) 2.32%. For the same compound, the viability, T/C by setting is: (second compound 0.1 µM, first compound 0.00316 µM) 11.5%; (second compound 0.1 µM, first compound 0.01 µM) 8.96%; (second compound 0.1 µM, first compound 0.0316 µM) 5.18%; (second compound 0.1 µM, first compound 0.1 µM) 3.75%; (second compound 0.1 µM, first compound 0.316 µM) 2.22%; (second compound 0.1 µM, first compound 1 µM) 2.24%. In addition, the viability, T/C was 8.47% (second compound 0.316 µM, first compound 0.00316 µM); 5.04% (second compound 0.316 µM, first compound 0.01 µM); 3.96% (second compound 0.316 µM, first compound 0.0316 µM); 2.43% (second compound 0.316 µM, first compound 0.1 µM); 1.28% (second compound 0.316 µM, first compound 0.316 µM); 1.33% (second compound 0.316 µM, first compound 1 µM). Also, the viability, T/C is 3.67% (second compound 1 µM, first compound 0.00316 µM); 2.76% (second compound 1 µM, first compound 0.01 µM); 2.37% (second compound 1 µM, first compound 0.0316 µM); 1.47% (second compound 1 µM, first compound 0.1 µM); 1.51% (second compound 1 µM, first compound 0.316 µM); 1.43% (second compound 1 µM, first compound 1 µM). The viability, T/C by setting is: (second compound 3.16 µM, first compound 0.00316 µM) 1.79%; (second compound 3.16 µM, first compound 0.01 µM) 1.63%; (second compound 3.16 µM, first compound 0.0316 µM) 1.82%; (second compound 3.16 µM, first compound 0.1 µM) 1.41%; (second compound 3.16 µM, first compound 0.316 µM) 1.37%; (second compound 3.16 µM, first compound 1 µM) 1.25%. In addition, the viability, T/C runs as follows: (second compound 10 µM, first compound 0.00316 µM) 1.63%; (second compound 10 µM, first compound 0.01 µM) 1.14%; (second compound 10 µM, first compound 0.0316 µM) 1.21%; (second compound 10 µM, first compound 0.1 µM) 0.66%; (second compound 10 µM, first compound 0.316 µM) 1.89%; (second compound 10 µM, first compound 1 µM) 0.82%.

By viability, T/C is commonly meant the result in the treated group divided by that in the control group, in per cent. One may read the IC50 as the midpoint of a concentration-inhibition curve.
